Laboratory results taken from ChEMBL document CHEMBL4622979, “Non-rigid Diarylmethyl Analogs of Baloxavir as Cap-Dependent Endonuclease Inhibitors of Influenza Viruses” (J Med Chem, 2020).

What was measured:
[1] = AUCinfinity in CD1 mouse brain assessed as (12aR)-12-(Diphenylmethyl)-7-hydroxy-3,4,12,12a-tetrahydro-1H-[1,4]oxazino[3,4-c]pyrido[2,1-f ][1,2,4]triazine-6,8-dione level at 15 mg/kg, po administered as single dose measured up to 24 hrs by LC-MS/MS analysis; assay type: ADME, organism-based; set-up: dose 15 mg/kg, time infinity, route oral; conditions: in vivo
[2] = Half life in CD1 mouse brain assessed as (12aR)-12-(Diphenylmethyl)-7-hydroxy-3,4,12,12a-tetrahydro-1H-[1,4]oxazino[3,4-c]pyrido[2,1-f ][1,2,4]triazine-6,8-dione level at 15 mg/kg, po administered as single dose measured up to 24 hrs by LC-MS/MS analysis; assay type: ADME, organism-based; conditions: in vivo
[3] = AUCinfinity in CD1 mouse kidney assessed as (12aR)-12-(Diphenylmethyl)-7-hydroxy-3,4,12,12a-tetrahydro-1H-[1,4]oxazino[3,4-c]pyrido[2,1-f ][1,2,4]triazine-6,8-dione level at 15 mg/kg, po administered as single dose measured up to 24 hrs by LC-MS/MS analysis; assay type: ADME, organism-based; set-up: dose 15 mg/kg, time infinity, route oral; conditions: in vivo
[4] = AUClast in CD1 mouse heart assessed as (12aR)-12-(Diphenylmethyl)-7-hydroxy-3,4,12,12a-tetrahydro-1H-[1,4]oxazino[3,4-c]pyrido[2,1-f ][1,2,4]triazine-6,8-dione level at 15 mg/kg, po administered as single dose measured up to 24 hrs by LC-MS/MS analysis; assay type: ADME, organism-based; conditions: in vivo
[5] = Acute toxicity in CD1 mouse assessed as effect on body weight at 2000 mg/kg, po measured for 2 weeks; assay type: organism-based; conditions: in vivo, 336 h
[6] = AUCinfinity in CD1 mouse lung assessed as (12aR)-12-(Diphenylmethyl)-7-hydroxy-3,4,12,12a-tetrahydro-1H-[1,4]oxazino[3,4-c]pyrido[2,1-f ][1,2,4]triazine-6,8-dione level at 15 mg/kg, po administered as single dose measured up to 24 hrs by LC-MS/MS analysis; assay type: ADME, organism-based; set-up: dose 15 mg/kg, route oral, time infinity; conditions: in vivo
[7] = Ratio of AUClast in CD1 mouse blood to plasma assessed as (12aR)-12-(Diphenylmethyl)-7-hydroxy-3,4,12,12a-tetrahydro-1H-[1,4]oxazino[3,4-c]pyrido[2,1-f ][1,2,4]triazine-6,8-dione level at 15 mg/kg, po administered as single dose measured up to 24 hrs by LC-MS/MS analysis; assay type: ADME, organism-based; conditions: in vivo
[8] = Cmax in CD1 mouse kidney assessed as (12aR)-12-(Diphenylmethyl)-7-hydroxy-3,4,12,12a-tetrahydro-1H-[1,4]oxazino[3,4-c]pyrido[2,1-f ][1,2,4]triazine-6,8-dione level at 15 mg/kg, po administered as single dose measured up to 24 hrs by LC-MS/MS analysis; assay type: ADME, organism-based; set-up: dose 15 mg/kg, route oral; conditions: in vivo
[9] = Tmax in CD1 mouse liver assessed as (12aR)-12-(Diphenylmethyl)-7-hydroxy-3,4,12,12a-tetrahydro-1H-[1,4]oxazino[3,4-c]pyrido[2,1-f ][1,2,4]triazine-6,8-dione level at 15 mg/kg, po administered as single dose measured up to 24 hrs by LC-MS/MS analysis; assay type: ADME, organism-based; conditions: in vivo
[10] = Selectivity ratio of CC50 for human HepG2 cells assessed as reduction in cell viability measured after 24 hrs in presence of glucose to CC50 for human HepG2 cells assessed as reduction in cell viability measured after 24 hrs in presence of galactose; assay type: cell-based
[11] = Half life in CD1 mouse plasma assessed as (12aR)-12-(Diphenylmethyl)-7-hydroxy-3,4,12,12a-tetrahydro-1H-[1,4]oxazino[3,4-c]pyrido[2,1-f ][1,2,4]triazine-6,8-dione level at 15 mg/kg, po administered as single dose measured up to 24 hrs by LC-MS/MS analysis; assay type: ADME, organism-based; conditions: in vivo
[12] = Acute toxicity in CD1 mouse assessed as effect on spleen at 2000 mg/kg, po measured after 2 weeks by macroscopic analysis; assay type: organism-based; conditions: in vivo, 336 h
[13] = MRTlast in CD1 mouse plasma assessed as (12aR)-12-(Diphenylmethyl)-7-hydroxy-3,4,12,12a-tetrahydro-1H-[1,4]oxazino[3,4-c]pyrido[2,1-f ][1,2,4]triazine-6,8-dione level at 15 mg/kg, po administered as single dose measured up to 24 hrs by LC-MS/MS analysis; assay type: ADME, organism-based; conditions: in vivo
[14] = AUCinfinity in CD1 mouse spleen assessed as (12aR)-12-(Diphenylmethyl)-7-hydroxy-3,4,12,12a-tetrahydro-1H-[1,4]oxazino[3,4-c]pyrido[2,1-f ][1,2,4]triazine-6,8-dione level at 15 mg/kg, po administered as single dose measured up to 24 hrs by LC-MS/MS analysis; assay type: ADME, organism-based; set-up: dose 15 mg/kg, route oral, time infinity; conditions: in vivo
[15] = Acute toxicity in CD1 mouse assessed as effect on water consumption at 2000 mg/kg, po measured for 2 weeks; assay type: organism-based; conditions: in vivo, 336 h
[16] = Acute toxicity in CD1 mouse assessed as effect on lung at 2000 mg/kg, po measured after 2 weeks by macroscopic analysis; assay type: organism-based; conditions: in vivo, 336 h
[17] = Elimination rate constant in CD1 mouse kidney assessed as (12aR)-12-(Diphenylmethyl)-7-hydroxy-3,4,12,12a-tetrahydro-1H-[1,4]oxazino[3,4-c]pyrido[2,1-f ][1,2,4]triazine-6,8-dione level at 15 mg/kg, po administered as single dose measured up to 24 hrs by LC-MS/MS analysis; assay type: ADME, organism-based; conditions: in vivo
[18] = Ratio of AUClast in CD1 mouse lung to plasma assessed as baloxavir acid level at 15 mg/kg, po administered as single dose measured up to 24 hrs by LC-MS/MS analysis; assay type: ADME, organism-based; conditions: other tissue
[19] = Ratio of AUClast in CD1 mouse muscle to plasma assessed as baloxavir acid level at 15 mg/kg, po administered as single dose measured up to 24 hrs by LC-MS/MS analysis; assay type: ADME, organism-based; conditions: other tissue
[20] = AUCinfinity in CD1 mouse blood assessed as baloxavir acid level at 15 mg/kg, po administered as single dose measured up to 24 hrs by LC-MS/MS analysis; assay type: ADME, organism-based; set-up: dose 15 mg/kg, time infinity, route oral; conditions: in vivo
[21] = Tmax in CD1 mouse blood assessed as baloxavir acid level at 15 mg/kg, po administered as single dose measured up to 24 hrs by LC-MS/MS analysis; assay type: ADME, organism-based; conditions: in vivo
[22] = Ratio of AUClast in CD1 mouse heart to plasma assessed as baloxavir acid level at 15 mg/kg, po administered as single dose measured up to 24 hrs by LC-MS/MS analysis; assay type: ADME, organism-based; conditions: other tissue
[23] = AUClast in CD1 mouse lung assessed as baloxavir acid level at 15 mg/kg, po administered as single dose measured up to 24 hrs by LC-MS/MS analysis; assay type: ADME, organism-based; conditions: in vivo
[24] = Half life in CD1 mouse brain assessed as baloxavir acid level at 15 mg/kg, po administered as single dose measured up to 24 hrs by LC-MS/MS analysis; assay type: ADME, organism-based; conditions: in vivo
[25] = Tmax in CD1 mouse small intestine assessed as baloxavir acid level at 15 mg/kg, po administered as single dose measured up to 24 hrs by LC-MS/MS analysis; assay type: ADME, organism-based; conditions: in vivo
[26] = Cmax in CD1 mouse small intestine assessed as baloxavir acid level at 15 mg/kg, po administered as single dose measured up to 24 hrs by LC-MS/MS analysis; assay type: ADME, organism-based; set-up: dose 15 mg/kg, route oral; conditions: in vivo

SMILES: COC(=O)OCOc1c2n(ccc1=O)N(C(c1ccccc1)c1ccccc1)[C@@H]1COCCN1C2=O
- AUC [1]: 1238 ng·h/g
- t1/2 [2]: 8.18 h
- AUC [3]: 18087 ng·h/g
- AUClast [4]: 11111 ng·h/g
- Activity [5]: Non-Toxic
- AUC [6]: 8547 ng·h/g
- Ratio AUC [7]: 0.82
- Cmax [8]: 5260 ng/g
- Tmax [9]: 0.5 h
- selectivity ratio at 24 h [10]: 0.9
- t1/2 [11]: 1.58 h
- Activity [12]: Non-Toxic
- MRTlast [13]: 1.67 h
- AUC [14]: 4713 ng·h/g
- Activity [15]: Non-Toxic
- Activity [16]: Non-Toxic
- Kel [17]: 0.27 h⁻¹

SMILES: COC(=O)OCOc1c2n(ccc1=O)N([C@@H]1c3ccccc3SCc3c1ccc(F)c3F)[C@@H]1COCCN1C2=O [BALOXAVIR MARBOXIL]
- Ratio AUC [18]: 21.1
- Ratio AUC [19]: 10.4
- AUC [20]: 1390 ng·h/g
- Tmax [21]: 2 h
- Ratio AUC [22]: 19.8
- AUClast [23]: 8959 ng·h/g
- t1/2 [24]: 11.3 h
- Tmax [25]: 0.5 h
- Cmax [26]: 53413 ng/g
